From ChEMBL document CHEMBL3817740, “Recent developments in SAR visualization” (Medchemcomm, 2016)

Target: Histamine H4 receptor (Homo sapiens, UniProt Q9H3N8)
Experiment: Inhibition of histamine H4 receptor (unknown origin)

Histamine H4 receptor, sequence (Q9H3N8 whole entry): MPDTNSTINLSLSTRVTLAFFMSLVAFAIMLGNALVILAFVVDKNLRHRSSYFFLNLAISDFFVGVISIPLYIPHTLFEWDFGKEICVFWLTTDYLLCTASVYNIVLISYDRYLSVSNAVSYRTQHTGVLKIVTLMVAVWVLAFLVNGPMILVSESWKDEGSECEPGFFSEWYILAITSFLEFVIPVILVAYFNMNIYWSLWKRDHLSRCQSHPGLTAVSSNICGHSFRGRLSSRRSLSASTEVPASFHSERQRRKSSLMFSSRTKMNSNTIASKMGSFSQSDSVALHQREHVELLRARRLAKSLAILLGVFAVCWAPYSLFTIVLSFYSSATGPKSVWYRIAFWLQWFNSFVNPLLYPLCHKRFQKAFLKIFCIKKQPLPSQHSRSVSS

| SMILES | Ki |
| --- | --- |
| CN[C@H]1CCN(c2nc(N)nc3c2oc2ccccc23)C1 | 3.39 nM |
| CN[C@H]1CCN(c2nc(N)nc3c2oc2ccc(C(C)(F)F)cc23)C1 | 1 nM |
| CN[C@H]1CCN(c2nc(N)nc3c2CCC3)C1 | 158 nM |
| CN[C@H]1CCN(c2nc(N)nc(C)c2C)C1 | 355 nM |
